# Data reported in BindingDB's records for doi:10.1016/j.bmcl.2021.128263 (A*Star, 2021).
# Molecular target: Replicase polyprotein 1ab (Severe acute respiratory syndrome coronavirus, UniProt P0C6X7)
# Assay: Literature assay
Compound,IC50 [nM],Ki [nM]
CC(C)C[C@H](NC(=O)OCc1ccccc1)C(=O)N[C@@H](C[C@@H]1CCNC1=O)C(=O)c1nc2ccccc2s1 [peptidomimetic coronavirus 3CLpro inhibitors 25c],210000,
CC(OC(C)(C)C)[C@H](NC(=O)OCc1ccccc1)C(=O)N[C@@H](CC1CCCCC1)C(=O)N[C@H](C=O)CC1CCNC1=O (some centres undefined) [TG-0205221],,53
CC(C)C[C@H](NC(=O)[C@@H](NC(=O)OCc1ccccc1)C(C)C)C(=O)N[C@@H](C[C@@H]1CCNC1=O)C(=O)C(=O)N(C)C [peptidomimetic coronavirus 3CLpro inhibitors 17],7,
CC(C)C[C@H](NC(=O)[C@@H](NC(=O)OCc1ccccc1)C(C)C)C(=O)N[C@@H](C[C@@H]1CCNC1=O)C(=O)c1nc2ccccc2s1 [peptidomimetic coronavirus 3CLpro inhibitors 2i],1700,
